# Like-named read-outs stand apart in the source and are kept apart here. Where a SMILES comes first, the peptide text is derived from it. Where no end group is shown, it is not given here. [ ]: non-standard residue; d: D form. The star is where a group is joined. Orn(α-tetramethylguanidino) = CN(C)C(=N[C@@H](CCCN)C(=O)*)N(C)C; hArg = N=C(N)NCCCC[C@H](N)C(=O)O; Orn = NCCC[C@H](N)C(=O)O
# Tests used:
# in vitro = in vitro ADME, mouse; details: 37° C.
# Method: Serum stability studies were carried out in duplicate as described by Hoffmann et al.. Briefly, 28 μL of an aqueous peptide or peptidomimetics solution (0.5 mg/mL) was added to 0.2 mL freshly pooled 25% mouse serum (Sigma-Aldrich GmbH, Taufkirchen, Germany) in water. The mixtures were incubated at 37° C. under gentle stirring. The proteins were precipitated with 40 μL of 15% aqueous TCA after incubation times of 0, 0.5, 1, 2, 4 and 6 h at 0° C. for 20 min before centrifuged (13500×G) at 4° C. for 5 min. The supernatants of all samples (240 μL) were neutralized with 1 mol/L aqueous NaOH and immediately stored at −20° C. The supernatants were analyzed by RP-HPLC using a linear acetonitrile gradient as described above with 0.1% TFA as ion pair reagent. Collected fractions of the main peaks were further analyzed by tandem mass spectrometry (MALDI-TOF/TOF-MS, 4700 Proteomics Analyzer, Applied Biosystems GmbH, Weiterstadt, Germany) in positive ion reflector mode using α-cyanohydroxycinnamic acid (50% CH3CN in 0.1% aqueous TFA) as matrix to identify the degradation products of the peptides and peptidomimetics, i.e., metabolites, at the different time points. Serum control samples consisted of 200 μL of pooled 25% mouse serum in water, which were also precipitated with 40 μL 15% aqueous TCA, as described before. Peptide reference samples consisted of 28 μL of the peptide stock solution diluted in 0.2 mL water and 40 μL of 15% aqueous trichloroacetic acid (TCA).
# E. coli D31 = format: cell-based, Escherichia coli; details: D31, 20 h
# Method: (§1) The minimal inhibition concentrations (MIC) of the apidaecin-derived peptides and peptide-derivatives were determined by a growth inhibition assay using a serial peptide dilution in sterilized round-bottom 96-well plates (polystyrene, U-bottom, Greiner Bio-One GmbH) with a final volume of 100 μL per well. The bacteria, e.g., E. coli BL21 A1, were grown in nutrient broth (NB, Carl Roth GmbH+Co. KG, Karlsruhe, Germany) at 37° C. over night. To each well of the 96-well plate, 50 μL of the overnight culture adjusted to 5×10^6 CFU/mL in 1% TSB were added. Lyophilized peptides and peptidomimetics were dissolved in 1% TSB (tryptic soy broth) or water to give a final concentration of 250 μg/mL. Fifty μL of the peptide or peptidomimetics solution were added to the first well of a row on the plate and mixed. Fifty μL of the first well containing the peptide solution were transferred to the second well, mixed and again 50 μL transferred to the next well and so on. Thereby, a two-fold dilution series was obtained starting at 250 μg/mL in the first well down to 120 ng/mL in the 12th well of a row giving a final peptide or peptidomimetics concentration from 125 μg/mL (well 1) to 60 ng/mL (well 12). Plates were incubated at 37° C. for 20 hrs. The absorbance was measured at 595 nm using a TECAN micro plate spectrophotometer (Tecan, Germany). All peptides and peptidomimetics were measured in triplicates. Sterilized water was used as a negative control.
# (§2) The following multidrug resistant bacteria strains were tested: • Eschericha coli 45849 and D31, • Klebsiella pneumoniae 123132 and K6, • Salmonella typhi S5 and Salmonella enterica subsp. enterica serovar Typhimurium (ATCC 700408), • Rhizobium radiobacter (ATCC 15955 deposited as Agrobacterium tumefaciens).
# S. typhi S5 = format: cell-based, Salmonella typhi; details: S5, 20 h
# Method: as §1, §2
# K. Pneumonia 123132 = assay: Growth inhibition assay (MIC); format: cell-based, Klebsiella pneumoniae; details: multidrug resistant strain; 1% TSB, 37° C., 20 hrs
# Method: as §1, §2
# [1] = tested on: K. Pneumonia K6, ATCC 700603; assay: Growth inhibition assay (MIC); format: cell-based, Klebsiella pneumoniae; details: multidrug resistant strain; 1% TSB, 37° C., 20 hrs
# Method: as §1, §2
# E. coli 45849 = assay: Growth inhibition assay (MIC); format: cell-based, Escherichia coli; details: multidrug resistant strain; 1% TSB, 37° C., 20 hrs
# Method: as §1, §2
# [2] = tested on: S. enterica subsp. Enterica serovar. typhi G10215 ATCC 700408; format: cell-based, Salmonella enterica; details: ATCC 700408, 20 h
# Method: as §1, §2
# B. subtilis 347 = format: cell-based, Bactillus subtillis; details: 347, 20 h
# Method: as §1
# (§3) The bacteria strains were tested: • Eschericha coli 1103, 10233, BL 21 AI, DC 2, • Klebsiella pneumoniae 681, • Micrococcus luteus ATCC 10240, • Mycobacterium vaccae • Bactillus subtillis 347.
# E. coli BL 21 AI = assay: Growth inhibition assay (MIC); format: cell-based, Escherichia coli; details: 1% TSB, 37° C., 20 hrs
# Outline: (§4)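 Two-fold serial dilution in 1% TSB, final 125 μg/mL to 60 ng/mL; inoculum 5×10^6 CFU/mL (before 1:1 mixing with peptide). Incubated 20 hrs at 37° C., growth read as absorbance at 595 nm, in triplicate with sterile water as negative control.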
# E. coli 1103 = format: cell-based, Escherichia coli; details: 1103, 20 h
# Method: as §1, §3
# K. pneumonia 681 = format: cell-based, Klebsiella pneumoniae; details: 20 h
# Method: as §1, §3
# M. luteus ATCC 10240 = format: cell-based, Micrococcus luteus; details: ATCC 10240, 20 h
# Outline: as §4
# [3] = tested on: R. radiobatter ATCC 15955; assay: Growth inhibition assay (MIC); format: cell-based, Rhizobium radiobacter; details: multidrug resistant strain; 1% TSB, 37° C., 20 hrs
# Method: as §1, §2
# [4] = 25% aqueous mouse serum, read-out: Half-life time
Compound,half-life at 0.061 mg/mL (in vitro; [4]) [h],MIC E. coli D31 (E. coli D31) [µg/mL],MIC S. typhi S5 (S. typhi S5) [µg/mL],MIC K. Pneumonia 123132 (K. Pneumonia 123132) [µg/mL],"MIC K. Pneumonia K6, ATCC 700603 [1] [µg/mL]",MIC E. coli 45849 (E. coli 45849) [µg/mL],MIC S. enterica subsp. Enterica serovar. typhi G10215 ATCC 700408 [2] [µg/mL],MIC E. coli BL 21 AI (E. coli BL 21 AI) [µg/mL],MIC M. luteus ATCC 10240 (M. luteus ATCC 10240) [µg/mL],also measured
CC[C@H](C)[C@H](NC(=O)[C@@H]1CCCN1C(=O)[C@H](CCCNC(=N)N)NC(=O)[C@@H]1CCCN1C(=O)[C@H](Cc1c[nH]cn1)NC(=O)[C@@H]1CCCN1C(=O)[C@@H]1CCCN1C(=O)[C@H](CCCNC(=N)N)NC(=O)[C@@H]1CCCN1C(=O)[C@H](CCCNC(=N)N)NC(=O)[C@@H]1CCCN1C(=O)[C@@H](NC(=O)[C@H](Cc1ccc(O)cc1)NC(=O)[C@@H](NC(=O)[C@@H]1CCCN1C(=O)[C@H](CCCNC(=N)N)NC(=O)[C@H](CC(N)=O)NC(=O)[C@H](CC(N)=O)NC(=O)[C@H](CCCN)NC(C)=O)C(C)C)[C@@H](C)CC)C(=O)N[C@@H](CCCNC(=N)N)C(=O)N[C@H](C(=O)O)C(C)C [compound 24] (Ac-[Orn]NNRPVYIPRPRPPHPRPIRV-OH),4,,,,,,,,,
CC[C@H](C)[C@H](NC(=O)[C@H](Cc1ccc(O)cc1)NC(=O)[C@@H](NC(=O)[C@@H]1CCCN1C(=O)[C@H](CCCNC(=N)N)NC(=O)[C@H](CC(N)=O)NC(=O)[C@H](CC(N)=O)NC(=O)[C@@H](N)CCCN)C(C)C)C(=O)N1CCC[C@H]1C(=O)N[C@@H](CCCNC(=N)N)C(=O)N1CCC[C@H]1C(=O)N[C@@H](CCCNC(=N)N)C(=O)N1CCC[C@H]1C(=O)N1CCC[C@H]1C(=O)N[C@@H](Cc1c[nH]cn1)C(=O)N1CCC[C@H]1C(=O)N[C@@H](CCCN)C(=O)N[C@@H](CC(C)C)C(N)=O [compound 81] (H-[Orn]NNRPVYIPRPRPPHP[Orn]L-NH2),2,8,4,8,16,8,4,,,
CC[C@H](C)[C@H](NC(=O)[C@H](Cc1ccc(O)cc1)NC(=O)[C@@H](NC(=O)[C@@H]1CCCN1C(=O)[C@H](CCCNC(=N)N)NC(=O)[C@H](CC(N)=O)NC(=O)[C@H](CC(N)=O)NC(=O)[C@H](CCCN)NC(C)=O)C(C)C)C(=O)N1CCC[C@H]1C(=O)N[C@@H](CCCNC(=N)N)C(=O)N1CCC[C@H]1C(=O)N[C@@H](CCCNC(=N)N)C(=O)N1CCC[C@H]1C(=O)N1CCC[C@H]1C(=O)N[C@@H](Cc1c[nH]cn1)C(=O)N1CCC[C@H]1C(=O)N[C@@H](CCCN)C(=O)N[C@@H](CC(C)C)C(N)=O [compound 82] (Ac-[Orn]NNRPVYIPRPRPPHP[Orn]L-NH2),> 6,32,8,8,32,16,8,,,half-life (in vitro; 25% aqueous serum): The same stability
CC[C@H](C)[C@H](NC(=O)[C@H](Cc1ccc(O)cc1)NC(=O)[C@@H](NC(=O)[C@@H]1CCCN1C(=O)[C@H](CCCNC(=N)N)NC(=O)[C@H](CC(N)=O)NC(=O)[C@H](CC(N)=O)NC(=O)[C@H](CCCN)NC(C)=O)C(C)C)C(=O)N1CCC[C@H]1C(=O)N[C@@H](CCCNC(=N)N)C(=O)N1CCC[C@H]1C(=O)N[C@@H](CCCNC(=N)N)C(=O)N1CCC[C@H]1C(=O)N1CCC[C@H]1C(=O)N[C@@H](Cc1c[nH]cn1)C(=O)N1CCC[C@H]1C(=O)N[C@@H](CCCCNC(=N)N)C(=O)N[C@@H](CC(C)C)C(N)=O [compound 131] (Ac-[Orn]NNRPVYIPRPRPPHP[hArg]L-NH2),2,,,,,,,4,0.5,MIC B. subtilis 347 (B. subtilis 347): 32 µg/mL; MIC E. coli 1103 (E. coli 1103): 16 µg/mL; MIC K. pneumonia 681 (K. pneumonia 681): 16 µg/mL
CC[C@H](C)[C@H](NC(=O)[C@H](Cc1ccc(O)cc1)NC(=O)[C@@H](NC(=O)[C@@H]1CCCN1C(=O)[C@H](CCCNC(=N)N)NC(=O)[C@H](CC(N)=O)NC(=O)[C@H](CC(N)=O)NC(=O)[C@H](CCCN)N=C(N(C)C)N(C)C)C(C)C)C(=O)N1CCC[C@H]1C(=O)N[C@@H](CCCNC(=N)N)C(=O)N1CCC[C@H]1C(=O)N[C@@H](CCCNC(=N)N)C(=O)N1CCC[C@H]1C(=O)N1CCC[C@H]1C(=O)N[C@@H](Cc1c[nH]cn1)C(=O)N1CCC[C@H]1C(=O)N[C@@H](CCCN)C(=O)N[C@@H](CC(C)C)C(N)=O [compound 134] ({Orn(α-tetramethylguanidino)}-NNRPVYIPRPRPPHP[Orn]L-NH2; N-terminus and C-terminus assumed),,,,,,,,,4,MIC B. subtilis 347 (B. subtilis 347): >128 µg/mL; MIC E. coli 1103 (E. coli 1103): 32 µg/mL; half-life (in vitro; [4]): > 6 h; MIC K. pneumonia 681 (K. pneumonia 681): 16 µg/mL
Ac-KNNRPVYIPKPRPPHPRL-NH2 [compound 22],,16,1,16,16,1,1,1.95,1.95,MIC R. radiobatter ATCC 15955 [3]: <0.16 µg/mL
GNNRPVYIPQPRPPHPRI [compound 1],2,,,,,,,,,
GNNRPVYIPQPRPPHPRI-NH2 [compound 4],0.25,,,,,,,,,
GNNRPVYIPQPRPPHPRL [compound 2],2,,,,,,,,,
GNNRPVYIPQPRPPHPRL-NH2 [compound 6],0.25,1,0.125,16,16,0.5,0.125,,,
GNNRPVYIPQPRPPHPRPIRV-NH2 [compound 110],6,,,,,,,,,
GNNRPVYIPRPRPPHPRLV-NH2 [compound 25],,64,2,16,16,1,1,3.91,1.95,MIC R. radiobatter ATCC 15955 [3]: 0.65 µg/mL
KNNRPVYIPKPRPPHPRL-NH2 [compound 21],,8,1,4,8,<0.25,0.25 to 0.5,1.95 to 3.91,,MIC R. radiobatter ATCC 15955 [3]: 0.65 µg/mL

# — patent publication US20150315241A1, “Antibiotic Peptides” (priority 2007, published 2015)
